“And” between values parts separate entries of the source, which are not always exact repeats. Equal entries are not always repeated.
Tested on: PPAR signaling pathway genes, fetal liver
Test: Fetal liver (GD18) PPAR gene array, fold induction versus control; maternal oral dosing GD14-18; rows per gene in dose order 1, 3, 10, 30, 62.5, 125, 250, 500 mg/kg/d
Assay type: in vivo, Sprague-Dawley rats
Method: A total of three blocks of 15 dams per block were dosed once daily from GD14–18 with either water vehicle (control) or HFPO-DA to evaluate fetal and maternal effects (Figure 1A). The first block of dams was dosed with control, 62.5, 125, 250, or 500mg/kg HFPO-DA ( n=3 dams for each). The second and third blocks of dams were dosed with control, 1, 3, 10, or 30mg/kg HFPO-DA ( n=3 per dose per block). Total sample sizes were n=9 for control, n=6 for 1, 3, 10, 30mg/kg , and n=3 for 62.5, 125, 250, and 500mg/kg HFPO-DA. In the first two blocks, spanning the entire dose range, we evaluated fetal testis testosterone production, fetal testis gene expression, fetal and maternal liver gene expression, fetal body weight, and maternal serum thyroid hormone and lipid concentrations. In the third block, encompassing the lower dose range utilized here, we collected fetal plasma for measuring HFPO-DA concentrations. Across all three blocks we evaluated maternal weight gain during dosing, reproductive output (number of fetuses and resorptions), maternal serum HFPO-DA concentration, and maternal liver weight at necropsy.
For the first two blocks, spanning the full dose range, late gestation (GD18) dams were euthanized by decapitation at ∼2h after the final oral dose [ ∼0830–1000 hours Eastern Standard Time (EST)]. Trunk blood was collected and serum isolated via centrifugation ( 10,000×g for 15 min at 4°C) in vacutainer tubes, transferred to 1.5-mL microcentrifuge tubes and stored at −80°C . Dam liver weight was recorded and a sample of liver tissue was collected into a polypropylene microcentrifuge tube containing 500μL TRIzol Reagent (Invitrogen) on ice. Fetuses were removed and two randomly selected fetuses per litter were weighed. Fetal testes were collected from all male pups with a single testis from the first three males used for determination of ex vivo testosterone production and the remaining testes were homogenized and preserved in TRIzol Reagent for gene expression analysis. The liver was collected from a single, randomly selected fetus per dam/litter for gene expression analysis and transferred to a polypropylene microcentrifuge tube containing 500μL TRIzol Reagent (Invitrogen) on ice. Both dam and fetal liver samples were individually homogenized using a Bullet Blender (Next Advance) with 1-mm zirconium oxide beads, transferred to clean tubes, and stored at −80°C prior to RNA extraction (see below). Ex vivo fetal testis testosterone production was measured as previously reported ([Wilson et al. 2004b]) except the radioimmunoassay (RIA) utilized here was supplied by ALPCO (Catalog No. 72-TESTO-CT2, ALPCO). Briefly, one testis was isolated from each of three separate male fetuses in each litter and incubated in a humidified atmosphere at 37°C for 3 h in 500μL of M-199 media (phenol red–free; Hazelton Biologics, Inc.) supplemented with 10% dextran-coated charcoal-stripped fetal bovine serum (Hyclone Laboratories) in 24-well plates under gentle agitation. After incubation, media were removed and stored in siliconized microcentrifuge tubes at −80°C until RIA analyses, which were performed according to manufacturer specifications.
Gene expression in fetal testes and fetal/maternal livers was assessed using reverse transcriptase real-time PCR of cDNA synthesized from RNA extracted from sample homogenates. RNA extraction was conducted according to TRIzol Reagent manufacturer specifications using chloroform and isopropanol. Following extraction, RNA was purified using the RNeasy Mini Kit (Catalog No. 74104; Qiagen). RNA concentration and purity (260:280 ratio ≥1.8 ) were determined with a NanoDrop 2000 spectrophotometer (Thermo Scientific). For the fetal testes, a 96-well gene array plate was previously custom designed to contain 89 target genes and 3 housekeeping genes, an intra-assay control, a genomic DNA control, a reverse transcriptase control, and a positive PCR control [see Table S1; SABioscience; ([Hannas et al. 2012])]. […]

For `O=C(O)C(F)(OC(F)(F)C(F)(F)C(F)(F)F)C(F)(F)F` (stereo not shown) [HFPO-DA, Hexafluoropropylene oxide dimer acid], the Acox3 (dose order) was 1.1 fold and 1.3 fold and 1.2 fold and 1.0 fold, the Acsl3 (dose order) was 1.0 fold and 1.1 fold and 1.2 fold and 1.3 fold and 1.4 fold and 1.5 fold and the Acsl4 (dose order) was 1.0 fold and 1.2 fold and 1.5 fold and 1.6 fold and 1.7 fold. For the same molecule, the Acsl5 (dose order) was 0.8 fold and 0.9 fold and 1.1 fold and 1.0 fold, the Apoa1 (dose order) was 1.1 fold and 1.2 fold and 0.9 fold and 1.0 fold and 1.5 fold and the Apoa5 (dose order) was 1.4 fold and 1.3 fold and 1.5 fold and 1.6 fold and 1.0 fold. The Apoc3 (dose order) was 1.0 fold and 1.1 fold and 1.3 fold and 0.9 fold and 1.2 fold and 1.4 fold, the Apoe (dose order) was 1.1 fold and 0.9 fold and 1.0 fold and 1.2 fold and the Aqp7 (dose order) was 1.0 fold and 1.3 fold and 1.5 fold and 1.6 fold and 1.7 fold and 1.8 fold. For the same molecule, the Cd36 (dose order) was 0.8 fold and 0.9 fold, the Clu (dose order) was 1.1 fold and 1.4 fold and 1.3 fold and 1.2 fold and the Creb1 (dose order) was 1.0 fold and 1.1 fold and 0.9 fold and 0.8 fold. For the same molecule, the Crebbp (dose order) was 1.0 fold and 1.1 fold and 0.9 fold, the Cyp27a1 (dose order) was 1.1 fold and 1.0 fold and 0.9 fold and the Dgat1 (dose order) was 1.1 fold and 1.2 fold and 1.4 fold and 1.5 fold. The Eln (dose order) was 1.6 fold and 1.0 fold and 1.3 fold and 1.1 fold and 1.5 fold and 1.4 fold and 1.2 fold, the Ep300 (dose order) was 1.0 fold and 1.2 fold and 0.9 fold and the Fabp2 (dose order) was 0.9 fold and 1.0 fold and 1.1 fold and 0.7 fold. The Fabp3 (dose order) was 1.0 fold and 1.2 fold and 1.1 fold and 0.8 fold, the Fabp4 (dose order) was 1.4 fold and 1.5 fold and 1.2 fold and 0.9 fold and 1.0 fold and the Fabp5 (dose order) was 1.1 fold and 1.0 fold and 1.3 fold and 1.4 fold and 1.5 fold and 1.8 fold. For the same molecule, the Fabp7 (dose order) was 1.0 fold and 1.3 fold and 1.4 fold and 1.8 fold and 1.9 fold, the Fads2 (dose order) was 1.1 fold and 1.2 fold and 1.6 fold and 1.8 fold and 2.0 fold and 2.2 fold and 2.1 fold and the Fgr (dose order) was 0.9 fold and 1.3 fold and 1.0 fold and 1.1 fold and 0.8 fold. For the same molecule, the Gk (dose order) was 1.4 fold and 1.9 fold and 1.7 fold and 2.0 fold and 1.0 fold and 1.2 fold, the Hif1a (dose order) was 1.0 fold and 1.1 fold and 1.2 fold and the Hspd1 (dose order) was 1.1 fold and 1.0 fold and 1.2 fold and 1.3 fold. For the same molecule, the Ilk (dose order) was 1.0 fold and 1.2 fold and 1.1 fold, the Klf10 (dose order) was 1.0 fold and 1.1 fold and 1.5 fold and 1.7 fold and 1.6 fold and 1.4 fold and the Lpin1 (dose order) was 1.0 fold and 1.2 fold and 0.8 fold and 0.9 fold and 1.3 fold. For the same molecule, the Lpl (dose order) was 1.0 fold and 1.1 fold and 1.2 fold and 1.4 fold and 1.3 fold and 1.5 fold, the Med1 (dose order) was 1.0 fold and 1.1 fold and 0.9 fold and the Mmp9 (dose order) was 1.2 fold and 1.5 fold and 1.0 fold and 1.1 fold and 0.9 fold. For the same molecule, the Ncoa3 (dose order) was 1.0 fold and 1.3 fold and 0.9 fold, the Ncoa6 (dose order) was 1.0 fold and 1.1 fold and 0.9 fold and the Nr1h3 (dose order) was 1.1 fold and 1.2 fold and 1.0 fold. For the same molecule, the Pck2 (dose order) was 0.9 fold and 1.1 fold and 1.0 fold, the Pdpk1 (dose order) was 0.9 fold and 1.1 fold and 0.8 fold and 1.0 fold and the Pltp (dose order) was 1.5 fold and 1.0 fold and 1.4 fold and 1.1 fold. For the same molecule, the Ppara (dose order) was 1.1 fold and 1.2 fold and 0.9 fold and 1.4 fold and 1.3 fold, the Ppard (dose order) was 0.9 fold and 1.4 fold and 1.1 fold and 1.0 fold and 1.2 fold and the Ppargc1a (dose order) was 0.9 fold and 1.0 fold and 0.7 fold and 0.6 fold and 0.5 fold. The Ppargc1b (dose order) was 1.1 fold and 1.3 fold and 1.2 fold and 0.9 fold and 1.0 fold, the Pprc1 (dose order) was 1.0 fold and 1.1 fold and 0.9 fold and 1.2 fold and the Pten (dose order) was 0.9 fold and 1.0 fold and 1.1 fold and 0.8 fold. For the same molecule, the Rxra (dose order) was 1.0 fold and 1.2 fold and 1.1 fold, the Rxrb (dose order) was 1.0 fold and 1.2 fold and 1.1 fold and 0.9 fold and the Sirt1 (dose order) was 0.9 fold and 1.0 fold and 0.8 fold. The Slc27a1 (dose order) was 1.0 fold and 1.1 fold and 0.9 fold, the Slc27a4 (dose order) was 1.0 fold and 1.2 fold and 0.9 fold and the Slc27a5 (dose order) was 1.2 fold and 1.1 fold and 0.9 fold and 1.0 fold. The Slc27a6 (dose order) was 1.4 fold and 1.1 fold and 1.0 fold and 1.3 fold and 1.7 fold and 1.5 fold, the Smarcd3 (dose order) was 1.2 fold and 1.0 fold and 0.9 fold and 1.1 fold and the Sorbs1 (dose order) was 1.2 fold and 1.5 fold and 1.3 fold and 0.9 fold and 1.1 fold and 1.0 fold. For the same molecule, the Tgs1 (dose order) was 0.9 fold and 1.0 fold and 0.8 fold, the Txnip (dose order) was 0.9 fold and 1.1 fold and 1.2 fold and the “number of significantly up-regulated PPAR pathway genes” value (fetal liver, ANOVA p<0.0001) was 28 genes. The “dose with up-regulated PPAR pathway gene expression in maternal and fetal livers” value (oral GD14-18) was no less than 1 mg/kg.

— article PMC6768323, “Adverse Maternal, Fetal, and Postnatal Effects of Hexafluoropropylene Oxide Dimer Acid (GenX) from Oral Gestational Exposure in Sprague-Dawley Rats” (Environmental Health Perspectives, 2019)
